Where a name gives a salt, the structure may show the parent alone.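 Five compound concentrations were applied to cells in 96-well plates for 48 hours; endpoints were derived by simple linear interpolation of the resulting dose-response curve. Abbreviation: GI50, concentration required for 50% inhibition of growth.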 Activity calls are given as the source filed them. Rule as the data show it: active = GI50 up to about 1.1 µM and inactive = higher.
Assays:
Experiment in all cases: DTP human tumour cell line panel, 48 h
[1] = test system: SF-539
[2] = test system: IGROV-1
[3] = test system: OVCAR-8
[4] = test system: OVCAR-5
[5] = test system: HT-29
[6] = test system: NCI-H23
[7] = test system: OVCAR-3
[8] = test system: HCT-116
[9] = test system: RPMI-8226
[10] = test system: UACC-257
[11] = test system: SN12C
[12] = test system: COLO 205
[13] = test system: SR
[14] = test system: HOP-62
[15] = test system: UO-31
[16] = test system: HCC 2998
[17] = test system: KM-20L2
[18] = test system: HL-60
[19] = test system: HCT-15
[20] = test system: A498

## O=S1(=O)C[C@H](NCc2ccccc2)[C@H](NCc2ccccc2)C1
[1]
  GI50: > 100 µM (inactive)
[2]
  GI50: > 100 µM (inactive)
[3]
  GI50: 96.2 µM (inactive)
[4]
  GI50: > 100 µM (inactive)
[5]
  GI50: > 100 µM (inactive)
[6]
  GI50: > 100 µM (inactive)
[7]
  GI50: > 100 µM (inactive)
[8]
  GI50: > 100 µM (inactive)
[9]
  GI50: 22.8 µM (inactive)
[10]
  GI50: > 100 µM (inactive)
[11]
  GI50: > 100 µM (inactive)
[12]
  GI50: > 100 µM (inactive)
[13]
  GI50: 18.4 µM (inactive)
[14]
  GI50: > 100 µM (inactive)
[15]
  GI50: > 100 µM (inactive)
[16]
  GI50: > 100 µM (inactive)

## COC(=O)NN1C(=O)C(=P(c2ccccc2)(c2ccccc2)c2ccccc2)C(C(=O)OC)=C1C
[1]
  GI50: > 100 µM (inactive)
[2]
  GI50: > 100 µM (inactive)
[3]
  GI50: > 100 µM (inactive)
[17]
  GI50: > 100 µM (inactive)
[18]
  GI50: 52.5 µM (inactive)
[5]
  GI50: > 100 µM (inactive)
[6]
  GI50: > 100 µM (inactive)
[7]
  GI50: > 100 µM (inactive)
[9]
  GI50: 60.5 µM (inactive)
[11]
  GI50: > 100 µM (inactive)
[12]
  GI50: > 100 µM (inactive)
[19]
  GI50: > 100 µM
[15]
  GI50: > 100 µM (inactive)
[20]
  GI50: > 100 µM (inactive)

## O=C(/C=C1\Nc2ncccc2N=C1CC(=O)c1ccccc1)c1ccccc1
[1]
  GI50: 13.2 µM (inactive)
[2]
  GI50: 2.72 µM (inactive)
[3]
  GI50: 5.93 µM (inactive)
[4]
  GI50: 23.5 µM (inactive)
[18]
  GI50: 13.5 µM (inactive)
[5]
  GI50: 6.89 µM (inactive)
[6]
  GI50: 23.1 µM (inactive)
[7]
  GI50: 1.66 µM (inactive)
[9]
  GI50: 5.37 µM (inactive)
[10]
  GI50: 65.6 µM (inactive)
[11]
  GI50: 2.24 µM (inactive)
[12]
  GI50: 4.97 µM (inactive)
[13]
  GI50: 4.66 µM (inactive)
[19]
  GI50: 2 µM
[14]
  GI50: 0.679 µM (active)
[15]
  GI50: 5.47 µM (inactive)
[20]
  GI50: 7.35 µM (inactive)

## Nc1nnc(O)c2c1c(I)cn2C1OC(CO)C(O)C1O (stereo not given)
[1]
  GI50: 0.526 µM (active)
[2]
  GI50: 0.643 µM (active)
[3]
  GI50: 0.105 µM (active)
[17]
  GI50: 2.49 µM (inactive)
[4]
  GI50: 0.689 µM (active)
[18]
  GI50: 0.118 µM (active)
[5]
  GI50: 0.122 µM (active)
[6]
  GI50: 0.5 µM (active)
[7]
  GI50: 0.0745 µM (active)
[8]
  GI50: 0.232 µM (active)
[9]
  GI50: 0.35 µM (active)
[10]
  GI50: 2.15 µM (inactive)
[11]
  GI50: 0.284 µM (active)
[12]
  GI50: 0.708 µM (active)
[13]
  GI50: 0.0466 µM (active)
[19]
  GI50: 0.188 µM
[14]
  GI50: 2.5 µM (inactive)
[15]
  GI50: 1.52 µM (inactive)
[20]
  GI50: 5.56 µM (inactive)
[16]
  GI50: 0.208 µM (active)

## O=C1CC2CC3OC3[C@H]3c4cc5c(cc4C(=O)N1C23)OCO5 (stereo not given in full)
[1]
  GI50: > 100 µM (inactive)
[2]
  GI50: > 100 µM (inactive)
[3]
  GI50: > 100 µM (inactive)
[17]
  GI50: > 100 µM (inactive)
[4]
  GI50: > 100 µM (inactive)
[18]
  GI50: > 100 µM (inactive)
[5]
  GI50: > 100 µM (inactive)
[7]
  GI50: > 100 µM (inactive)
[8]
  GI50: > 100 µM (inactive)
[9]
  GI50: > 100 µM (inactive)
[11]
  GI50: > 100 µM (inactive)
[12]
  GI50: > 100 µM (inactive)
[13]
  GI50: > 100 µM (inactive)
[19]
  GI50: > 100 µM
[14]
  GI50: > 100 µM (inactive)
[15]
  GI50: > 100 µM (inactive)
[16]
  GI50: > 100 µM (inactive)

## CCCCc1oc2ccccc2c1C(=O)c1cc(I)c(OCCN(CC)CC)c(I)c1 [AMIODARONE HYDROCHLORIDE]
[1]
  GI50: 5.07 µM (inactive)
[2]
  GI50: 11.1 µM (inactive)
[17]
  GI50: 3.64 µM (inactive)
[4]
  GI50: 5.21 µM (inactive)
[18]
  GI50: 2.79 µM (inactive)
[5]
  GI50: 4.42 µM (inactive)
[6]
  GI50: 6.15 µM (inactive)
[7]
  GI50: 6.22 µM (inactive)
[8]
  GI50: 4.17 µM (inactive)
[9]
  GI50: 3.71 µM (inactive)
[10]
  GI50: 5.21 µM (inactive)
[11]
  GI50: 7.73 µM (inactive)
[12]
  GI50: 4.21 µM (inactive)
[19]
  GI50: 4.12 µM
[14]
  GI50: 10.6 µM (inactive)
[20]
  GI50: 5.02 µM (inactive)
[16]
  GI50: 3.85 µM (inactive)

## NCCCCNOCCCN
[1]
  GI50: > 100 µM (inactive)
[2]
  GI50: > 100 µM (inactive)
[3]
  GI50: > 100 µM (inactive)
[4]
  GI50: 42.8 µM (inactive)
[5]
  GI50: > 100 µM (inactive)
[6]
  GI50: > 100 µM (inactive)
[7]
  GI50: > 100 µM (inactive)
[8]
  GI50: > 100 µM (inactive)
[9]
  GI50: > 100 µM (inactive)
[10]
  GI50: > 100 µM (inactive)
[11]
  GI50: > 100 µM (inactive)
[12]
  GI50: > 100 µM (inactive)
[13]
  GI50: > 100 µM (inactive)
[15]
  GI50: > 100 µM (inactive)
[16]
  GI50: > 100 µM (inactive)

## COC(=O)C1=C(O)C(C(=O)OC)[C@@]2(O)[C@@H](C(=O)OC)[C@H](C)C[C@@H]1[C@@H]2C(=O)OC (stereo not given in full)
[1]
  GI50: 18.4 µM (inactive)
[4]
  GI50: 30.5 µM (inactive)
[18]
  GI50: 25.9 µM (inactive)
[5]
  GI50: 27.6 µM (inactive)
[6]
  GI50: 37.5 µM (inactive)
[7]
  GI50: 20 µM (inactive)
[8]
  GI50: 35.5 µM (inactive)
[9]
  GI50: 23.8 µM (inactive)
[10]
  GI50: 63.1 µM (inactive)
[11]
  GI50: 36.6 µM (inactive)
[13]
  GI50: 21.3 µM (inactive)
[19]
  GI50: 25.9 µM
[14]
  GI50: 31.8 µM (inactive)
[15]
  GI50: 21.5 µM (inactive)
[20]
  GI50: 15.5 µM (inactive)
[16]
  GI50: 16.6 µM (inactive)

## NCc1ccccc1-c1c2nc(c(-c3ccccc3CN)c3ccc([nH]3)c(-c3ccccc3CN)c3nc(c(-c4ccccc4CN)c4ccc1[nH]4)C=C3)C=C2
[2]
  GI50: 23.7 µM (inactive)
[3]
  GI50: 37 µM (inactive)
[17]
  GI50: 19.7 µM (inactive)
[4]
  GI50: 13.9 µM (inactive)
[18]
  GI50: 14.5 µM (inactive)
[5]
  GI50: 28.2 µM (inactive)
[6]
  GI50: 21.8 µM (inactive)
[7]
  GI50: 16.2 µM (inactive)
[8]
  GI50: 13.7 µM (inactive)
[9]
  GI50: 12.4 µM (inactive)
[10]
  GI50: 20.3 µM (inactive)
[11]
  GI50: 18.7 µM (inactive)
[12]
  GI50: 29.8 µM (inactive)
[13]
  GI50: > 10 µM (inactive)
[19]
  GI50: 22 µM
[14]
  GI50: 22.1 µM (inactive)
[15]
  GI50: 18.5 µM (inactive)
[16]
  GI50: 25.9 µM (inactive)

## CCOC(=O)C(=O)Nc1c(CC)cccc1C(C)CC (stereo not given)
[1]
  GI50: > 100 µM (inactive)
[2]
  GI50: > 100 µM (inactive)
[3]
  GI50: > 100 µM (inactive)
[17]
  GI50: > 100 µM (inactive)
[4]
  GI50: > 100 µM (inactive)
[18]
  GI50: > 100 µM (inactive)
[5]
  GI50: > 100 µM (inactive)
[6]
  GI50: > 100 µM (inactive)
[7]
  GI50: > 100 µM (inactive)
[8]
  GI50: > 100 µM (inactive)
[9]
  GI50: > 100 µM (inactive)
[10]
  GI50: > 100 µM (inactive)
[11]
  GI50: > 100 µM (inactive)
[12]
  GI50: > 100 µM (inactive)
[13]
  GI50: > 100 µM (inactive)
[19]
  GI50: > 100 µM
[14]
  GI50: > 100 µM (inactive)
[15]
  GI50: > 100 µM (inactive)
[20]
  GI50: > 100 µM (inactive)
[16]
  GI50: > 100 µM (inactive)

From ChEMBL document CHEMBL1201862, “PubChem BioAssay data set” (2004)
